The record followed here is patent publication US4472304A, “(Amido)N-substituted bleomycins, salts thereof and process for preparation thereof” (Nippon Kayaku Kabushiki Kaisha, priority 1981, dated 1984).

The target of data set [1] is T1, bleomycin-inactivating enzyme (Rattus norvegicus, UniProt P70645).
T1 sequence (P70645 1-454): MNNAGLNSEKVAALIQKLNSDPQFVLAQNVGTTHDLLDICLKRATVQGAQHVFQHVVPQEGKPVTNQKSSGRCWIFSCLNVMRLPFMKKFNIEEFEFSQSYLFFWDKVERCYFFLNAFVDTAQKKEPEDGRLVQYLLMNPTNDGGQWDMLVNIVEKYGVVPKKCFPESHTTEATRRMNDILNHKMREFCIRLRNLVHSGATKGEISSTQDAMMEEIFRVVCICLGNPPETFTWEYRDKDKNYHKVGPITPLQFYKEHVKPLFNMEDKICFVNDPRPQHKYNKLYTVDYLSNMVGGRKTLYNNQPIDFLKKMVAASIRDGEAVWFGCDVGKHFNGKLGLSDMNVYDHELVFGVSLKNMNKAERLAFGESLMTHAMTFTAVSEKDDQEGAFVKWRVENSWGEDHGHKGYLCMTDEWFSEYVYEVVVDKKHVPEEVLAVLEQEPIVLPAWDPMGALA
Briefly: in vitro. Conditions: liver extract.

Data set [2] deals with T1, bleomycin-inactivating enzyme. To be noted: rated under conditions where inactivation of bleomycin B2 is 50%; 37° C., 40 minutes; residual activity against M. smegmatis ATCC 607.
In another data set the test system is pulmonary fibrosis. Description: Pulmonary toxicity (pulmonary fibrosis) in mice. To be noted: for Incidence: Number of mice with pulmonary fibrosis (%) / Incidence: Number of mice with pulmonary fibrosis / Grade: Total score of pulmonary fibrosis/total number of samples / Grade: Total score of pulmonary fibrosis/total number of samples (%): ICR mice, 5 mg/kg i.p. once a day for 10 days; for Incidence: Number of mice with pulmonary fibrosis (%) / Incidence: Number of mice with pulmonary fibrosis: 5 weeks observation; for Incidence: Number of mice with pulmonary fibrosis: mice with fibrosis/total; for Grade: Total score of pulmonary fibrosis/total number of samples / Grade: Total score of pulmonary fibrosis/total number of samples (%): points 0, 1, 2, 4, 6; for Ratio (by comparison with "Bleomycin Complex"): versus Bleomycin Complex.

The subject of data set [3] is Mycobacterium smegmatis ATCC 607. Briefly: Antimicrobial activity against Mycobacterium smegmatis ATCC 607 (agar plate-cylinder). Type of data set: cell-based. To be noted: standard bleomycin A2 (copper-free) assumed 1,000 mcg potency/mg. As for the experimental part: (§1) 2. ANT[…] MYC[…] ATCC 607 AND BACILLUS SUBTILIS
(§2) The antimicrobial activity was tested against the captioned test organisms by the method of agar plate-cylinder. The activity was recorded on the assumption that the activity of standard sample of bleomycin A2 (copper-free form) is 1,000 mcg poteney/mg.

Another data set deals with Bacillus subtilis. Description: Antimicrobial activity against Bacillus subtilis (agar plate-cylinder). Type of data set: cell-based. Conditions: standard bleomycin A2 (copper-free) assumed 1,000 mcg potency/mg. As for the experimental part:
as §1, §2

In another data set the test system is HeLa S3 cells. Briefly: Growth inhibitory activity against cultured HeLa S3 cells. Type of data set: cell-based. Conditions: Homo sapiens, HeLa S3, 72 h; Cu-free; 3 days; read-out: 50% Growth inhibitory concentration of Cu-free compd. against cultured HeLaS3 cells (ID50). The method, then: 3. GROWTH INHIBITORY ACTIVITY AGAINST CULTURED HELA S3 CELLS
HeLa S3 cells were inoculated into a medium (MEM with 10% bovine serum) placed in a plastic petri dish. Two days thereafter, a bleomycin was added to the dish. After 3 days of breeding, the number of cells were counted. The percentage growth inhibition was calculated using the following equation:
Percentage inhibition (%)=100×(B-A)/(B-C) where A is the final number of cells after 3 days from the addition of test sample, B is the final number of cells in the control without addition of the test smaple, and C is the number of cells at the time of addition of the test sample.

For data set [4] the following is noted: CDF1/SLC male mice, s.c. once a day for 10 days, Behrens-Karber, daily dose.
Protocol: From the mortality during the administration period, LD50 (daily dose) was determined by the method of Behrens-Karber.

The structures appear in SMILES notation. Converted amounts (≈) assume the structure as drawn.

Molecule `Cc1c(N)nc(C(CC(N)=O)NCC(N)C(N)=O)nc1C(=O)NC(C(=O)NC(C)C(O)C(C)C(=O)NC(C(=O)NCCc1nc(-c2nc(C(=O)NCCCCNC(=N)N)cs2)cs1)C(C)O)C(OC1OC(CO)C(O)C(O)C1OC1OC(CO)C(O)C(OC(N)=O)C1O)c1cnc[nH]1` (centres unmarked) [bleomycin B2, reference compound] gave a metabolised at 40 min in data set [1] of 50%.
For `CCCCN(CCCC)CCCNC(=O)C(N)CNC(CC(N)=O)c1nc(N)c(C)c(C(=O)NC(C(=O)NC(C)C(O)C(C)C(=O)NC(C(=O)NCCc2nc(-c3nc(C(=O)NCCC[N+](CC)(CC)CCCN(Cc4ccccc4)Cc4ccccc4)cs3)cs2)C(C)O)C(OC2OC(CO)C(O)C(O)C2OC2OC(CO)C(O)C(OC(N)=O)C2O)c2cnc[nH]2)n1` (centres unmarked) [Compound 57, 3-{N,N--diethyl-N--[3-(dibenzylamino)propyl]amino}propylamino-(amido)N--[3-(di-n-butylamino)propyl]-BLM], the “Resistance of Cu-free compound against inactivating enzyme (degree of inactivation)” value in data set [2] was “+++ +”. Moreover, in the data set with pulmonary fibrosis, the “Incidence: Number of mice with pulmonary fibrosis (%)” value (from here on “Incidence: Number of mice … (%)”) is 0%, the “Incidence: Number of mice with pulmonary fibrosis” value is 0/9, the “Grade: Total score of pulmonary fibrosis/total number of samples” value is 0/27 and the “Grade: Total score of pulmonary fibrosis/total number of samples (%)” value came to 0%. The “Ratio (by comparison with "Bleomycin Complex")” value in the data set on pulmonary fibrosis is 0. Further, in data set [3], the “Antimicrobial potency of Cu-free compound against Mycobacterium smegmatis ATCC 607” value was 25924 mcg potency/mg. In the data set on Bacillus subtilis, the “Antimicrobial potency of Cu-free compound against Bacillus subtilis” value was found to be 1831 mcg potency/mg.
In data set [1], `CNC(=O)C(N)CNC(CC(N)=O)c1nc(N)c(C)c(C(=O)NC(C(=O)NC(C)C(O)C(C)C(=O)NC(C(=O)NCCc2nc(-c3nc(C(=O)NCCc4c[nH]cn4)cs3)cs2)C(C)O)C(OC2OC(CO)C(O)C(O)C2OC2OC(CO)C(O)C(OC(N)=O)C2O)c2cnc[nH]2)n1` (centres unmarked) [Compound 1, 2-(4'-Imidazolyl)ethylamino-(amido)N--[methyl]-BLM] registered a metabolised at 40 min of 5 to 14%. Besides, in the data set with HeLa S3 cells, the IC50 was 1.2 µg/mL (≈ 0.845 µM). In addition, the “Antimicrobial potency of Cu-free compound against Mycobacterium smegmatis ATCC 607” value in data set [3] was 1447 mcg potency/mg. Further, the “Antimicrobial potency of Cu-free compound against Bacillus subtilis” value in the data set on Bacillus subtilis came to 654 mcg potency/mg.
Regarding `CCCCCCCCNC(=O)C(N)CNC(CC(N)=O)c1nc(N)c(C)c(C(=O)NC(C(=O)NC(C)C(O)C(C)C(=O)NC(C(=O)NCCc2nc(-c3nc(C(=O)NCCC[N+](C)(C)CCCN(Cc4ccccc4)Cc4ccccc4)cs3)cs2)C(C)O)C(OC2OC(CO)C(O)C(O)C2OC2OC(CO)C(O)C(OC(N)=O)C2O)c2cnc[nH]2)n1` (centres unmarked) [Compound 53, 3-{N,N--dimethyl-N--[3-(dibenzylamino)propyl]amino}-propylamino-(amido)N--[n-octyl]-BLM], in the data set on pulmonary fibrosis, the “Incidence: Number of mice … (%)” value is recorded as 0%, the “Incidence: Number of mice with pulmonary fibrosis” value was 0/9, the “Grade: Total score of pulmonary fibrosis/total number of samples” value is given as 0/27 and the “Grade: Total score of pulmonary fibrosis/total number of samples (%)” value came to 0%. For the same molecule, the “Ratio (by comparison with "Bleomycin Complex")” value with pulmonary fibrosis is reported as 0. Further, the “LD50 during administration period of 10 consecutive days” value (“LD50 during administration period” for short) in data set [4] is listed as 15.0 mg/kg/day. Also, the “Antimicrobial potency of Cu-free compound against Mycobacterium smegmatis ATCC 607” value in data set [3] was determined as 40703 mcg potency/mg. For the same molecule, the “Antimicrobial potency of Cu-free compound against Bacillus subtilis” value in the data set on Bacillus subtilis was found to be 595 mcg potency/mg.
In the case of `Cc1c(N)nc(C(CC(N)=O)NCC(N)C(=O)NCCCNC(C)c2ccccc2)nc1C(=O)NC(C(=O)NC(C)C(O)C(C)C(=O)NC(C(=O)NCCc1nc(-c2nc(C(=O)NCCCN(C)CCCN(Cc3ccc(OCc4ccccc4)c(OCc4ccccc4)c3)Cc3ccc(OCc4ccccc4)c(OCc4ccccc4)c3)cs2)cs1)C(C)O)C(OC1OC(CO)C(O)C(O)C1OC1OC(CO)C(O)C(OC(N)=O)C1O)c1cnc[nH]1` [Compound 64, 3-{N--methyl-N--[3-bis(m,p-dibenzyloxybenzyl)aminopropyl]amino}-propylamino-(amido)N--[3-((S)-1'-phenylethyl)aminopropyl]-BLM], in the data set with pulmonary fibrosis, the “Incidence: Number of mice … (%)” value turned out to be 0%, the “Incidence: Number of mice with pulmonary fibrosis” value is given as 0/9, the “Grade: Total score of pulmonary fibrosis/total number of samples” value was 0/27 and the “Grade: Total score of pulmonary fibrosis/total number of samples (%)” value is 0%. Moreover, in the data set with pulmonary fibrosis, the “Ratio (by comparison with "Bleomycin Complex")” value is 0. Also, the “LD50 during administration period” value in data set [4] is above 81.4 mg/kg/day. For the same molecule, the “Antimicrobial potency of Cu-free compound against Mycobacterium smegmatis ATCC 607” value in data set [3] came to 115 mcg potency/mg. For the same molecule, in the data set on Bacillus subtilis, the “Antimicrobial potency of Cu-free compound against Bacillus subtilis” value came out at 23 mcg potency/mg.
`CCN(CC)CCCC(C)NC(=O)C(N)CNC(CC(N)=O)c1nc(N)c(C)c(C(=O)NC(C(=O)NC(C)C(O)C(C)C(=O)NC(C(=O)NCCc2nc(-c3nc(C(=O)NCCCNC(C)c4ccccc4)cs3)cs2)C(C)O)C(OC2OC(CO)C(O)C(O)C2OC2OC(CO)C(O)C(OC(N)=O)C2O)c2cnc[nH]2)n1` [Compound 36, 3-((S)-1'-phenylethylamino)propylamino-(amido)N--[4-diethylamino-1-methylbutyl]-BLM]: the “Resistance of Cu-free compound against inactivating enzyme (degree of inactivation)” value in data set [2] is on record as “+ +++”. Moreover, in data set [3], the “Antimicrobial potency of Cu-free compound against Mycobacterium smegmatis ATCC 607” value was found to be 6061 mcg potency/mg. Also, the “Antimicrobial potency of Cu-free compound against Bacillus subtilis” value in the data set with Bacillus subtilis is reported as 3694 mcg potency/mg.
Molecule `CCNC(=O)C(N)CNC(CC(N)=O)c1nc(N)c(C)c(C(=O)NC(C(=O)NC(C)C(O)C(C)C(=O)NC(C(=O)NCCc2nc(-c3nc(C(=O)NCCc4c[nH]cn4)cs3)cs2)C(C)O)C(OC2OC(CO)C(O)C(O)C2OC2OC(CO)C(O)C(OC(N)=O)C2O)c2cnc[nH]2)n1` (centres unmarked) [Compound 2, 2-(4'-Imidazolyl)ethylamino-(amido)N--[ethyl]-BLM] had a metabolised at 40 min in data set [1] of 15 to 24%. For the same molecule, in the data set with HeLa S3 cells, the IC50 came to 0.98 µg/mL (≈ 0.683 µM). Also, the “Antimicrobial potency of Cu-free compound against Mycobacterium smegmatis ATCC 607” value in data set [3] worked out at 1895 mcg potency/mg. Besides, in the data set on Bacillus subtilis, the “Antimicrobial potency of Cu-free compound against Bacillus subtilis” value stood at 767 mcg potency/mg.
As to `CCCCCCCCNC(=O)C(N)CNC(CC(N)=O)c1nc(N)c(C)c(C(=O)NC(C(=O)NC(C)C(O)C(C)C(=O)NC(C(=O)NCCc2nc(-c3nc(C(=O)NCCCN(C)CCCN(Cc4ccc(OCc5ccccc5)c(OCc5ccccc5)c4)Cc4ccc(OCc5ccccc5)c(OCc5ccccc5)c4)cs3)cs2)C(C)O)C(OC2OC(CO)C(O)C(O)C2OC2OC(CO)C(O)C(OC(N)=O)C2O)c2cnc[nH]2)n1` (centres unmarked) [Compound 65, 3-{N--methyl-N--[3-bis(m,p-dibenzyloxybenzyl)aminopropyl]amino}-propylamino-(amido)N--[n-octyl]-BLM], in the data set with pulmonary fibrosis, the “Incidence: Number of mice … (%)” value is recorded as 0%, the “Incidence: Number of mice with pulmonary fibrosis” value was 0/9, the “Grade: Total score of pulmonary fibrosis/total number of samples” value is recorded as 0/27 and the “Grade: Total score of pulmonary fibrosis/total number of samples (%)” value turned out to be 0%. Further, in the data set on pulmonary fibrosis, the “Ratio (by comparison with "Bleomycin Complex")” value is listed as 0. Further, the “LD50 during administration period” value in data set [4] is above 75.7 mg/kg/day. For the same molecule, in data set [3], the “Antimicrobial potency of Cu-free compound against Mycobacterium smegmatis ATCC 607” value is 153 mcg potency/mg. Besides, the “Antimicrobial potency of Cu-free compound against Bacillus subtilis” value with Bacillus subtilis was 13 mcg potency/mg.
